Laboratory results taken from patent publication US7414134B2, “B1 bradykinin receptor antagonists” (Amgen Inc., priority 2004, dated 2008).
Ends that are not written are not given here.

Key:
[1] = target: T1, hB1 receptor (Homo sapiens, UniProt P46663); experiment: In vitro assay of human B1 receptor function using calcium flux (aequorin); format: cell-based; conditions: CHO D-/hB1/Aequorin cells, agonist 20 nM des-Arg10-Kallidin (EC80); read-out: binding IC50's to hB1 receptor function
T1 construct: expressed in transfected cells; host or cells: CHO D- cells stably expressing hB1 and aequorin
T1 sequence (P46663 1-353): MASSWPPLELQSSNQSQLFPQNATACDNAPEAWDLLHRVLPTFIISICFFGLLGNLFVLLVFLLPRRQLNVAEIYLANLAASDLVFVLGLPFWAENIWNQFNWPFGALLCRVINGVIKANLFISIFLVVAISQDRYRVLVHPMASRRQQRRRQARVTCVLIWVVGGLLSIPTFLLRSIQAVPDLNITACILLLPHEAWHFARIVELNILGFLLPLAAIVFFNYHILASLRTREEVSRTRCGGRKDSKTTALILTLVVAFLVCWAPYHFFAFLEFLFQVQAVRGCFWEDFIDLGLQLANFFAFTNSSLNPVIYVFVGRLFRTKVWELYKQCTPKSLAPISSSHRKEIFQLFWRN
Excerpt: Activation of the Gq linked B1 receptor results in an increase in intracellular calcium. The calcium sensitive photoprotein aequorin can, therefore, be used as an indicator of B1 receptor activation. Aequorin is a 21-kDa photoprotein that forms a bioluminescent complex when linked to the chromophore cofactor coelenterazine. Following the binding of calcium to this complex, an oxidation reaction of coelenterazine results in the production of apoaequorin, coelenteramide, CO2, and light that can be detected by conventional luminometry.
A stable CHO D-/hB1/Aequorin cell line was established and the cells were maintained in suspension in spinner bottles containing a 1:1 ratio of DMEM and HAM F12 (Gibco 11765-047), high glucose (Gibco 11965-084), 10% Heat Inactivated Dialyzed serum (Gibco 26300-061), 1× Non-Essential Amino Acids (Gibco 11140-050), 1× Glutamine-Pen-Strep (Gibco 10378-016), and Hygromycin, 300 μg/mL (Roche 843555). […]
Media was removed from the wells and replaced with 60 μL of serum free HAM's F12 with 30 mM HEPES (pH 7.5) and 15 μM coelenterazine (Coelenterazine h Luciferin #90608 from Assay Designs). […] The hB1 agonist, des-Arg10-Kallidin, was added to the cell plate and another 12 images were recorded to determine the IC50 of the antagonist(s).

[2] = cited from earlier work

| IC50 [1] | Compound | half-life of BK in plasma [2] |
| --- | --- | --- |
| < 1000 nM | Cc1ccc(S(=O)(=O)N[C@H](Cc2cn([C@@H]3CCOc4cc(CN5CCC(F)CC5)ccc43)nn2)C(N)=O)cc1 [Example 7, (R)-3-(1-((R)-7-((4-fluoropiperidin-1-yl)methyl)-3,4-dihydro-2H-chromen-4-yl)-1H-1,2,3-triazol-4-yl)-2-(4-methylphenylsulfonamido)propanamide] | – |
| – | RPPGFSPFR [BK, Bradykinin] | approximately 17 seconds |
